Source: patent US7288660B2, “Process for preparing ondansetron hydrochloride dihydrate having a defined particle size” (Taro Pharmaceutical Industries Limited, priority 2004, dated 2007)
Where a name gives a salt, the structure may show the parent alone.

Legend:
[1] = particles from the '578 patent process (cooling isopropanol/water solution); cited from earlier work
[2] = Particle size determination by laser diffraction (MALVERN Mastersizer 2000); type: physicochemical; conditions: for <63 μm (fraction of particles by volume smaller than specified diameter) / <150 μm (fraction of particles by volume smaller than specified diameter) / Mean particle size: hydrochloride dihydrate
Experimental: Particle Size Determination by Laser Diffraction
The particle size of the obtained ondansetron hydrochloride dihydrate particles was determined as set forth above (See Methodology and Protocols). The mean particle size and particle size distribution of the particles (fraction of particles by volume smaller than specified diameter) are presented in the following table.

[3] = Drying: 40° C., eight (8) hours, 25° C., two (2) days
[4] = Drying: Ambient conditions, six (6) hours
[5] = Drying: None (i.e., wet particles after filtration)

SMILES | <250 μm (fraction of particles by volume smaller than specified diameter) ([2]; dried particles) | <63 μm (fraction of particles by volume smaller than specified diameter) ([2]; dried particles) | <150 μm (fraction of particles by volume smaller than specified diameter) ([2]; dried particles) | Mean particle size ([2]; dried particles) | also measured
Cc1nccn1CC1CCc2c(c3ccccc3n2C)C1=O (stereo not shown) [ondansetron hydrochloride dihydrate] | – | – | – | – | Fraction of particles smaller than 250 μm [1]: less than 60%
Cc1nccn1CC1CCc2c(c3ccccc3n2C)C1=O (single isomer, unassigned) [Example 3, ondansetron hydrochloride dihydrate] | 100% | 34% | 85% | 81 μm | –
Cc1nccn1CC1CCc2c(c3ccccc3n2C)C1=O (single isomer, unassigned) [Example 2, ondansetron hydrochloride dihydrate] | 100% | 31% | 90% | 81 μm | –
Cc1nccn1CC1CCc2c(c3ccccc3n2C)C1=O (stereo not shown) [Example 6, ondansetron hydrochloride dihydrate] | – | – | – | – | <60 μm [2, 3]: 15%; <350 μm [2, 3]: 100%; <60 μm ([2]; Drying: 40° C., four (4) hours): 28%; <280 μm ([2]; Drying: 40° C., four (4) hours): 100%; <60 μm ([2]; Drying: 40° C., two (2) hours): 35%; <290 μm ([2]; Drying: 40° C., two (2) hours): 100%; <60 μm [2, 4]: 28%; <280 μm [2, 4]: 100%; <60 μm [2, 5]: 31%; <280 μm [2, 5]: 100%

Second part, led by results:

<250 μm (fraction of particles by volume smaller than specified diameter) ([2]; dried particles) | <63 μm (fraction of particles by volume smaller than specified diameter) ([2]; dried particles) | <150 μm (fraction of particles by volume smaller than specified diameter) ([2]; dried particles) | Mean particle size ([2]; dried particles) | SMILES | also measured
100% | 12% | 85% | 81 μm | Cc1nccn1CC1CCc2c(c3ccccc3n2C)C1=O (single isomer, unassigned) [Example 4, ondansetron hydrochloride dihydrate] | –
100% | 26% | 85% | 89 μm | Cc1nccn1CC1CCc2c(c3ccccc3n2C)C1=O (single isomer, unassigned) [Example 5, ondansetron hydrochloride dihydrate] | –
100% | – | 90% | 96 μm | Cc1nccn1CC1CCc2c(c3ccccc3n2C)C1=O (single isomer, unassigned) [Example 1, ondansetron hydrochloride dihydrate] | <60 μm (fraction of particles by volume smaller than specified diameter) ([2]; dried particles): 19%
